This note sets out measurements from patent US6410245B1, “Compositions and methods for detecting ligand-dependent nuclear receptor and coactivator interactions” (priority 1998, dated 2002).

The test deals with VP16TRα, Gal4-SRC-1, and UAS-TK-luciferase. Briefly: positive two-hybrid system, luciferase reporter, VP16TRα and Gal4-SRC-1. Type of test: cell-based. Conditions: CHO cells triple transfected; dose-response curve; FIG. 8. From the text:
“Receptor” indicates LBD-TRX, with the LBD exemplified by a genereic nuclear receptor (NR) LBD with bound ligand (L), and the TRX domain represented by the VP16 acidic activation domain (VP16). “Coactivator” indicates a CA-TRX, with exemplary CA species being a portion of the SRC-1 protein, a portion of the CBP protein, or isolated LCD sequences from those proteins, the TRX domain is exemplified as the Gal4 DNA binding domain (DBD). “Corepressor” indicates a CR-TRX, with exemplary CR species being the interacting domains (ID1 or ID2) from SMRT or NcoR fused to the TRX domain as exemplified by Gal4 DNA binding domain (DBD). The reporter polynucleotide is exemplified as a UAS-TK-luciferase reporter containing binding sites for Gal4 DBD. CHO cells were triple transfected with these constructs and hormone added.
“Receptor” indicates LBD-TRX, with the LBD exemplified by a genereic nuclear receptor (NR) LBD with bound ligand (L), and the TRX domain represented by the VP16 acidic activation domain (VP16). “Coactivator” indicates a CA-TRX, with exemplary CA species being a portion of the SRC-1 protein, a portion of the CBP protein, or isolated LCD sequences from those proteins, the TRX domain is exemplified as the Gal4 DNA binding domain (DBD). […]
On the technique in general: A reporter such as luciferase makes a cellular process visible.

For `N[C@@H](Cc1cc(I)c(Oc2ccc(O)c(I)c2)c(I)c1)C(=O)O` [T3, triiodothyronine], the “reporter (luciferase) response” value was “dose-dependent”.
